Assay: xn = mol fraction of the nth substance listed
Settings: 100 kPa, Liquid; for electrical conductivity: Direct current cell with electrodes; for mass density: Vibrating tube method; for viscosity: Cone and plate viscometry

CCCn1cc[n+](C)c1.O=S(=O)([N-]S(=O)(=O)C(F)(F)F)C(F)(F)F + O=C1CCCO1
Settings	electrical conductivity [S/m]	mass density [kg/m3]	viscosity [mPa·s]
308.15 K, x1 = 0.05	–	1170.18	–
308.15 K, x1 = 0.0999	–	1214.67	–
308.15 K, x1 = 0.1999	–	1280.78	–
308.15 K, x1 = 0.2912	–	1323.97	–
308.15 K, x1 = 0.4005	–	1362.59	–
308.15 K, x1 = 0.4986	1.27	1389.01	–
308.15 K, x1 = 0.6	0.992	1410.7	–
308.15 K, x1 = 0.6997	0.827	1427.98	–
308.15 K, x1 = 0.7998	0.737	1442.24	–
308.15 K, x1 = 0.8818	0.667	1452.2	–
308.15 K, x1 = 1	0.611	1464.43	–
313.15 K, x1 = 0.05	1.42	1165.15	–
313.15 K, x1 = 0.0999	–	1209.63	–
313.15 K, x1 = 0.1	1.9	–	2.49
313.15 K, x1 = 0.15	2.06	–	3.06
313.15 K, x1 = 0.1999	2.02	1275.71	3.57
313.15 K, x1 = 0.2912	1.94	1318.9	–
313.15 K, x1 = 0.2996	–	–	5.1
313.15 K, x1 = 0.4005	1.64	1357.55	6.92
313.15 K, x1 = 0.4986	1.44	1383.98	9.13
313.15 K, x1 = 0.6	1.15	1405.67	11.92
313.15 K, x1 = 0.6997	1.03	1422.96	14.78
313.15 K, x1 = 0.7998	0.849	1437.25	17.93
313.15 K, x1 = 0.8818	0.789	1447.22	20.73
313.15 K, x1 = 1	0.71	1459.44	25.32
318.15 K, x1 = 0.05	1.52	1159.99	–
318.15 K, x1 = 0.0999	–	1204.53	–
318.15 K, x1 = 0.1	2.03	–	2.3
318.15 K, x1 = 0.15	2.22	–	2.8
318.15 K, x1 = 0.1999	2.24	1270.69	3.25
318.15 K, x1 = 0.2912	2.13	1313.92	–
318.15 K, x1 = 0.2996	–	–	4.6
318.15 K, x1 = 0.4005	1.92	1352.58	6.2
318.15 K, x1 = 0.4986	1.68	1379.05	8.06
318.15 K, x1 = 0.6	1.41	1400.79	10.43
318.15 K, x1 = 0.6997	1.21	1418.09	12.8
318.15 K, x1 = 0.7998	0.997	1432.4	15.49
318.15 K, x1 = 0.8818	0.883	1442.41	17.84
318.15 K, x1 = 1	0.813	1454.63	21.58
323.15 K, x1 = 0.05	1.64	1154.83	–
323.15 K, x1 = 0.0999	–	1199.33	–
323.15 K, x1 = 0.1	2.17	–	2.13
323.15 K, x1 = 0.15	2.38	–	2.59
323.15 K, x1 = 0.1999	2.41	1265.59	3.01
323.15 K, x1 = 0.2912	2.33	1308.85	–
323.15 K, x1 = 0.2996	–	–	4.21
323.15 K, x1 = 0.4005	2.1	1347.55	5.59
323.15 K, x1 = 0.4986	1.9	1374.04	7.24
323.15 K, x1 = 0.6	1.64	1395.82	9.27
323.15 K, x1 = 0.6997	1.39	1413.16	11.31
323.15 K, x1 = 0.7998	1.15	1427.49	13.71
323.15 K, x1 = 0.8818	1.03	1437.5	15.72
323.15 K, x1 = 1	0.923	1449.73	18.82
